Our source for the Ki values is patent publication US20110207729A1, “BICYCLIC ACYLGUANIDINE DERIVATIVE” (ASTELLAS PHARMA INC., priority 2007, published 2011).

Where a name gives a salt, the structure may show the parent alone.

This assay deals with T1, human 5-HT5A receptor (Homo sapiens, UniProt P47898).
T1 construct: expressed in transfected cells; membrane preparation
T1 sequence (P47898 whole entry): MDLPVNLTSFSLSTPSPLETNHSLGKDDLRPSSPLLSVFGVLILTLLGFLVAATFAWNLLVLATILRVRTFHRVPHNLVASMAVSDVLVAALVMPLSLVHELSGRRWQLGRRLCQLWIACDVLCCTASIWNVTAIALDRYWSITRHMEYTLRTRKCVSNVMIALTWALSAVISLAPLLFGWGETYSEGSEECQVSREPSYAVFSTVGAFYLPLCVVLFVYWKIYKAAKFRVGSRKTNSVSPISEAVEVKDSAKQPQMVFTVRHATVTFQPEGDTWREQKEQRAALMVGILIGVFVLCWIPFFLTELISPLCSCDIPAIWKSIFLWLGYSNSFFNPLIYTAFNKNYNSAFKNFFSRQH
The experiment in a line: Test on a human 5-HT5A receptor binding inhibition ([3H]5-CT). Conditions: membrane from HEK293 cells expressing human 5-HT5A receptor; Ki calculated from IC50 and Kd 4.95 nM. On the procedure:
Acquisition of HEK293 cells for forced expressions of a human 5-HT5A receptor
The ORF (open reading frame; protein coding region) of a human 5-HT5A receptor (Genbank AF498985) was cloned from a human hippocampus cDNA library, and then inserted into a pCR2.1 vector (Invitrogen), and Escherichia coli containing the plasmid was cultured in a large amount. Next, the full-length cDNA sequence of the human 5-HT5A receptor was analyzed, and recombined into a pcDNA3.1 vector (Invitrogen) as an expression vector and cultured in a large amount. HEK293 established cells (ATCC) derived from the human fetal kidney were seeded, the expression plasmid (1 μg) obtained above were added thereto with LIPOFECTAMINE 2000 (Invitrogen; 2 μl), the gene was transfected into HEK293 cells, and the expression cells were screened with a drug-resistant marker, Geneticin (G418 sulfate 500 μg/ml; Kanto Chemical Co., Inc.). Thus prepared recombinant cells which express the gene were cultured in a medium containing D-MEM (Dulbecco's modified eagle medium, Sigma), 10% FCS (Fetal calf serum: fetal bovine serum), 1% Pc./Sm (Penicillin/Streptomycin, Invitrogen), and 500 μg/ml G418 for 3 days. These experimental operations follow an manual for gene operation experiment and an instruction appended in a reagent, and the like, such as a known method (Sambrook, J. et al, Molecular Cloning—A Laboratory Manual”, Cold Spring Harabor laboratory, NY, 1989).
(1) Preparation of a Membrane from HEK293 Cells for Forced Expressions of a Human 5-HT5A Receptor
HEK293 cells for forced expressions of a human 5-HT5A receptor were cultured in a F500 plate, and scraped with a scraper. After centrifugation, a precipitate was collected, and an incubation buffer (50 mM Tris (HCl) (pH 7.4), 10 mM MgSO4, and 0.5 mM EDTA (ethylenediamine tetraacetic acid)) were added thereto. After homogenization, it was further centrifuged, and the precipitate was added with the incubation buffer, followed by thoroughly suspending. This operation was repeated, and a protein concentration was measured, thereby completing the preparation of a membrane.
(2) Test on a Human 5-HT5A Receptor Binding Inhibition
A solution of a compound to be tested and 100 μM 5-CT (5-carboxamidetriptamine) in DMSO was added to a 96-well plate at 2 μl/well, and suspended in an incubation buffer, and a membrane from HEK293 cells for forced expressions of a human 5-HT5A receptor prepared at 200 μg/ml was added at 100 μl/well. After incubation at room temperature for 15 minutes, a [^3H]5-CT solution (2 nM [^3H]5-CT, incubation buffer) was added thereto at 100 μl/well.
Separately, 100 μl of the solution was distributed into a liquid scintillation vial, and 2 ml of Aquasol II (registered trademark) was added thereto, followed by stirring. Then, a radioactivity was measured by a liquid scintillation counter. It was incubated at 37° C. for 60 minutes. The reaction mixture was sucked into 96-well GF/C filter plate that had been pre-treated with 0.2% polyethyleneimine, and washed six times with an ice-cooled, 50 mM Tris (pH 7.5) buffer. The GF/C filter plate was dried.
Microscint TMPS (registered trademark) was added thereto at 40 μl/well. A radioactivity remaining on the GF/C filter plate was measured by a top counter.
The [^3H]5-CT binding inhibiting activity by the compound to be tested in each experiment was determined as an IC50 value with a radioactivity upon addition of DMSO alone being 0% inhibition, and a radioactivity upon addition of 1 μM 5-CT being 100% inhibition. Separately, a Ki value was calculated from the Kd value of the [^3H]5-CT determined from Scatchard analysis, by the following equation.
Ki=IC50(1+Concentration of ligands added/Kd(4.95 nM))
As to `COc1ccccc1C1=CC(C)(C)Oc2ccc(C(=O)N=C(N)N)cc21` [Example 1-01, N-(diaminomethylene)-4-(2-methoxyphenyl)-2,2-dimethyl-2H-chromene-6-carboxamide hydrochloride], the Ki (as a rule, the dissociation constant of the complex between target and ligand, obtained from inhibition or displacement) is 30 to 300 nM.
As for `CC1=C(c2c(F)cc(F)cc2F)c2cc(C(=O)N=C(N)N)ccc2OC1` [Example 1-67], the figure is 0.3 to 3 nM; as for `CC1(C)C=C(c2ccc(F)cc2)c2cc(C(=O)N=C(N)N)ccc2O1` [Example 1-110], 30 to 300 nM.
`CC1=C(c2cc(F)c(F)cc2F)c2cc(C(=O)N=C(N)N)ccc2CC1` [Example 2-143]: the Ki was 0.3 to 3 nM.
In the case of `CC1C=C(c2cccs2)c2cc(C(=O)N=C(N)N)ccc2O1` (stereo not shown) [Example 1-166], the Ki was 3 to 30 nM.
As for `CN(C)Cc1ccccc1C1=CCCc2ccc(C(=O)N=C(N)N)cc21` [Example 2-36], the Ki is 30 to 300 nM.
With `NC(N)=NC(=O)c1ccc2c(c1)C(c1ccccc1CO)=CCC2` [Example 2-35], the inhibitory constant (Ki) was 30 to 300 nM.
`N#Cc1cccc(F)c1C1=CCCc2ccc(C(=O)N=C(N)N)cc21` [Example 2-180]: the Ki is 3 to 30 nM.
For `NC(N)=NC(=O)c1ccc2c(c1)C(c1cccs1)=CCC2` [Example 2-21] the value was 0.3 to 3 nM; for `CC1=C(c2ccc(F)cc2C)c2cc(C(=O)N=C(N)N)ccc2CC1` [Example 2-163], 0.3 to 3 nM.
Consider `NC(N)=NC(=O)c1ccc2c(c1)C(c1ccc(C(F)(F)F)nc1)=CCC2` [Example 2-142], for which the inhibition constant (Ki) is 30 to 300 nM.
For `Cc1sc2ccc(C(=O)N=C(N)N)cc2c1-c1ccccc1F` [Example 3-35], the inhibition constant Ki was 0.3 to 3 nM.
As to `NC(N)=NC(=O)c1ccc2c(c1)C(c1cccc(Cl)c1)=CCC2` [Example 2-10], the Ki is 3 to 30 nM.
For `COc1ccc(F)cc1-c1csc2ccc(C(=O)N=C(N)N)cc12` [Example 3-28], the Ki was 3 to 30 nM.
As for `NC(N)=NC(=O)c1ccc2c(c1)C(c1ccccc1)CCC2` (stereo not shown) [Example 3-02], the figure is 3 to 30 nM; as for `CC(C)n1cc(C2=CCCc3ccc(C(=O)N=C(N)N)cc32)cn1` [Example 2-167], 30 to 300 nM.
As to `CC1C=C(c2cccnc2Cl)c2cc(C(=O)N=C(N)N)ccc2O1` (stereo not shown) [Example 1-127], the Ki is 30 to 300 nM.
For `NC(N)=NC(=O)c1ccc2c(c1)C(c1cncc(Cl)c1)=CCC2` [Example 2-150] the value was 30 to 300 nM; for `CCOc1ccc(C2=CCCc3ccc(C(=O)N=C(N)N)cc32)cc1` [Example 2-87], 3 to 30 nM; for `COc1ccc(C2=CCCc3ccc(C(=O)N=C(N)N)cc32)c(C(F)(F)F)c1` [Example 2-165], 3 to 30 nM.
As for `COc1cc(F)c(F)cc1C1=CCOc2ccc(C(=O)N=C(N)N)cc21` [Example 1-79], the figure is 3 to 30 nM; as for `CC1(C)C=C(c2c(F)cccc2F)c2cc(C(=O)N=C(N)N)ccc2O1` [Example 1-109], 3 to 30 nM.
On to `COc1cc(F)c(C2=CCCc3ccc(C(=O)N=C(N)N)cc32)c(F)c1` [Example 2-94], for which the Ki is 3 to 30 nM.
Turning to `COc1ccc(F)cc1C1=CCOc2ccc(C(=O)N=C(N)N)cc21` [Example 1-50], the inhibitory constant (Ki) is 3 to 30 nM.
Regarding `NC(N)=NC(=O)c1ccc2c(c1)C(c1cccc([N+](=O)[O-])c1)=CCC2` [Example 2-47], the inhibitory constant (Ki) was 3 to 30 nM.
For `Cc1ccc(C2=CCCc3ccc(C(=O)N=C(N)N)cc32)c(Cl)c1` [Example 2-134] the value was 0.3 to 3 nM.
As for `NC(N)=NC(=O)c1ccc2c(c1)C(c1ccc([N+](=O)[O-])cc1)=CCC2` [Example 2-48], the figure is 0.3 to 3 nM.
With `NC(N)=NC(=O)c1ccc2c(c1)C(c1ccc(Cl)cc1Cl)=CCO2` [Example 1-51], the inhibitory constant (Ki) was 0.3 to 3 nM.
As to `NC(=O)c1cccc(C2=CCCc3ccc(C(=O)N=C(N)N)cc32)c1` [Example 2-30], the Ki was 30 to 300 nM.
For `NC(N)=NC(=O)c1ccc2occ(-c3ccccc3)c2c1` [Example 3-09] the value was 30 to 300 nM; for `CC1(C)C=C(c2ccc(F)cc2F)c2cc(C(=O)N=C(N)N)ccc2O1` [Example 1-105], 3 to 30 nM; for `COc1c(F)cccc1-c1csc2ccc(C(=O)N=C(N)N)cc12` [Example 3-27], 3 to 30 nM.
Take `CC1=C(c2ccc(F)cc2F)c2cc(C(=O)N=C(N)N)ccc2CC1` [Example 2-177]: the Ki was 0.3 to 3 nM.
Take `N#Cc1cc(C2=CCOc3ccc(C(=O)N=C(N)N)cc32)ccc1F` [Example 1-49]: the Ki is 30 to 300 nM.
Turning to `NC(N)=NC(=O)c1ccc2scc(-c3ccccc3O)c2c1` [Example 3-29], the inhibitory constant (Ki) is 0.3 to 3 nM.
As for `CC1C=C(c2ccsc2)c2cc(C(=O)N=C(N)N)ccc2O1` (stereo not shown) [Example 1-167], the figure is 3 to 30 nM; as for `CC1=C(c2ccccc2)c2cc(C(=O)N=C(N)N)ccc2CC1` [Example 2-56], 2.3 nM; as for `COc1ccccc1-c1csc2ccc(C(=O)N=C(N)N)cc12` [Example 3-08], 0.3 to 3 nM.
In the case of `Cc1cc(Cl)ccc1C1=CCOc2ccc(C(=O)N=C(N)N)cc21` [Example 1-92], the Ki is 0.3 to 3 nM.
Take `NC(N)=NC(=O)c1ccc2c(c1)C(c1cc(F)ccc1Cl)=CCC2` [Example 2-169]: the Ki was 3 to 30 nM.
As for `N#Cc1cc(F)ccc1C1=CCCc2ccc(C(=O)N=C(N)N)cc21` [Example 2-57], the Ki was 3 to 30 nM.
As for `CC1C=C(c2c(F)cccc2F)c2cc(C(=O)N=C(N)N)ccc2O1` (stereo not shown) [Example 1-126], the inhibition constant Ki is 3 to 30 nM.
For `NC(N)=NC(=O)c1ccc2c(c1)C(c1ccccn1)=CCC2` [Example 2-89], the inhibition constant (Ki) is 30 to 300 nM.
As for `NC(N)=NC(=O)c1ccc2c(c1)C(c1ccc(F)cc1Cl)=CCC2` [Example 2-70], the figure is 0.3 to 3 nM.
As for `NC(N)=NC(=O)c1ccc2c(c1)C(c1cnccn1)=CCC2` [Example 2-86], the figure is 30 to 300 nM.
`N#Cc1cc(Cl)ccc1C1=CCCc2ccc(C(=O)N=C(N)N)cc21` [Example 2-185]: the Ki is 30 to 300 nM.
As for `COc1cc2c(cc1C(=O)N=C(N)N)C(c1c(F)cc(F)cc1F)=CCO2` [Example 1-118], the figure is 0.3 to 3 nM.
For `NC(N)=NC(=O)c1ccc2scc(-c3ccccc3)c2c1` [Example 3-07] the value was 3 to 30 nM; for `N#Cc1ccc(F)cc1C1=CCCc2ccc(C(=O)N=C(N)N)cc21` [Example 2-175], 30 to 300 nM.
As for `N#Cc1ccc(C2=CCCCc3ccc(C(=O)N=C(N)N)cc32)cc1` [Example 3-04], the Ki was 30 to 300 nM.
As for `COc1cc(C#N)ccc1C1=C(F)CCc2ccc(C(=O)N=C(N)N)cc21` [Example 2-166], the figure is 0.3 to 3 nM; as for `CN(C)Cc1ccc(C2=CCCc3ccc(C(=O)N=C(N)N)cc32)cc1` [Example 2-32], 3 to 30 nM; as for `NC(N)=NC(=O)c1ccc2c(c1)C(c1ccc(Cl)cc1F)=CCO2` [Example 1-54], 0.3 to 3 nM.
Take `COc1ccc(C2=CCCc3ccc(C(=O)N=C(N)N)cc32)c(F)c1` [Example 2-85]: the Ki is 0.3 to 3 nM.
For `COc1ccccc1-c1c(C)sc2ccc(C(=O)N=C(N)N)cc12` [Example 3-33] the value was 0.3 to 3 nM.
As for `NC(N)=NC(=O)c1ccc2c(c1)C(c1ccc(F)cc1)=C(F)CC2` [Example 2-96], the figure is 0.3 to 3 nM.
As to `NC(N)=NC(=O)c1ccc2c(c1)C(c1cc(F)cc(F)c1)=CCO2` [Example 1-46], the Ki was 3 to 30 nM.
`NC(N)=NC(=O)c1ccc2c(c1)C(c1ccccc1O)=CCO2` [Example 1-22]: the Ki is 0.3 to 3 nM.
